Results taken from paper PMC13408522, “The Effect of Glycosylation on Biodistribution and Cytotoxicity of ^99mTc-Radiolabeled Luteolin” (Advanced Pharmaceutical Bulletin, 2025).
“Also recorded” adds a separate entry of the source. Read-outs that look alike come from different tables or passages of the source.

Columns and labels:
[1] = tested on: HepG2 cells; assay: MTT cell viability assay, HepG2; type: cell-based; conditions: 5-200 µg/mL, 24 h (LuG also 48 and 72 h)
Experimental: (§1) According to the biodistribution results of Lu and LuG in the previous step, three cell lines were selected for further analysis. HUVEC cell line (an endothelial cell that was isolated from the umbilical cord vein) as a normal cell, SW480 as a colorectal cancer cell line, and HepG2 as a hepatocellular carcinoma cell line were obtained from the cell bank of Roshd Azma Company. They were cultured in Dulbecco’s Modified Eagle Medium (DMEM) supplemented with FBS 10% (Fetal Bovine Serum) and Pen/Sterp 10^4 U/mL (Penicillin- Streptomycin) at 37°C and 5% carbon dioxide (CO2). Then, 10^5 cells/mL were seeded in 96-well cell culture plates and incubated for 24 h.
(§2) After 24 h, the cell lines were treated with Lu and LuG (5, 10, 25, 50, 75, 100, 200 µg/mL). The cytotoxicity effect of Lu and LuG was measured using the MTT (3-[4,5-dimethylthiazol-2-yl]- 2,5-diphenyltetrazolium bromide) assay for 24 h. Next, 20 μL of MTT solution (5 mg/mL) was added to each well, and the complexes were incubated at 37°C for 4 hours. Afterward, the culture medium was removed and replaced with DMSO 200 μL). The absorbance of each well was determined at 570 nm using an ELISA reader, and the cell viability percentage was calculated relative to the control group.

[2] = tested on: SW480 cells; assay: MTT cell viability assay, SW480; type: cell-based; conditions: 5-200 µg/mL, 24 h
Experimental: as §1, §2

[3] = tested on: HUVEC cells; assay: MTT cell viability assay, HUVEC normal cells; type: cell-based; conditions: 5-200 µg/mL, 24 h
Experimental: as §1, §2

[4] = tested on: HepG2 cells; conditions: cited from earlier work
[5] = Biodistribution of 99mTc-radiolabeled flavonoids, organ radioactivity after SPECT imaging; design: species or system Wistar-Albino rats; conditions: rat, in vivo
Experimental: Five milligrams of tin chloride (SnCl2) was dissolved in 1 mL of hydrochloric acid 10% and diluted with 3 mL of distilled water, and the pH was adjusted to 7. Then, 1 mg of Lu and LuG and about 4 mCi of fresh pertechnetate (^99mTcO4) in 2 mL of NaCl were added to the complex. Afterward, it was incubated at room temperature for 20 minutes.
An intraperitoneal injection of a ketamine and xylazine mixture anesthetized the Wistar-Albino rats. About 1.4 mCi of flavonoid-^99mTc complex (^99mTc-Lu and ^99mTc-LuG) was injected through the tail vein. The imaging was performed using SPECT (Single-Photon Emission Computed Tomography) at 0, 5, 15, 30, 60, and 90 min. Then, the animals were sacrificed in accordance with all ethical considerations, and each organ was carefully separated. The percentage of radioactivity in each organ was calculated by dividing the activity counted by the dose calibrator by the total radioactivity. This method ensured accurate assessment of the biodistribution of the radiolabeled compounds within the various organs.
Organ accumulation of ^99mTc−Lu/^99mTc−LuG (%)=(Amount of radioactivity counted in each organ/Amount of radioactivity counted in whole body)×100

[6] = tested on: HepG2 cells; assay: Annexin V-FITC/PI flow cytometry for apoptosis/necrosis; type: cell-based; conditions: HepG2, 5, 30, 50 µg/mL
Experimental: According to the results of the previous steps, LuG was selected for flow cytometry testing on the HepG2 cancer cell line. […] HepG2 cells were treated with LuG (5, 30, 50 µg/mL) for 48 h and then washed with PBS. Next, 300 µL of binding buffer was added to 1 × 10^6 cells and incubated for 15 min at 25°C in away from the light with 4 µL of FITC Annexin V and 2 µL of PI. To investigate apoptotic or necrotic pathways, data were analyzed by FlowJo software. […] Additionally, cells without any treatment (negative control) and those treated with LuG (positive control) were designated as “Auto” and “Unstained”, respectively.

[7] = tested on: HepG2 cells; assay: Cell cycle analysis by PI flow cytometry; type: cell-based
Experimental: HepG2 cells were seeded in 6-well plates and treated with various concentrations of Luteolin-7-O-glucoside for 24 h. After treatment, the cells were fixed in a solution of ethanol: water (7:3) at -20 °C. Then, ethanol-fixed cells were washed with PBS and incubated with RNase A (100 μL) for 30 min. Following the RNase treatment, the cells were incubated in a PI/Triton X-100 solution for an additional 30 minutes. The samples were analyzed using a flow cytometer (FACSCalibur), and the data were assessed with FlowJo version 10. Finally, the G0/G1 phase (2N DNA content), S phase (intermediate DNA content), and G2/M phase (4N DNA content) were calculated.[13]

[8] = tested on: HepG2 cells; design: method as in PMID 32129972; conditions: cited from earlier work
[9] = tested on: HepG2 cells; design: method as in PMID 24257119; conditions: 24 h treatment; cited from earlier work
[10] = listed as luteolin-7-O-glucoside

Row | Compound | cytotoxicity on HepG2 cells (in words) [1] | cytotoxicity on HepG2 cells (in words) ([1]; listed as luteolin) | cytotoxicity on SW480 cells (in words) [2] | cytotoxicity on normal HUVEC cells (in words) [3] | apoptosis in HepG2 cells ([4]; luteolin: ref 32) | elimination phase of the radiolabeled compound (in words) [5] | cytotoxicity on HepG2 cells (in words) [1, 10] | apoptosis/necrosis of HepG2 cells (in words) [6] | apoptosis/necrosis of HepG2 cells (in words) [6, 10] | effect on cell cycle progression (in words) ([7]; HepG2) | change in S phase versus control ([7]; HepG2, 24 h) | decrease of 4N DNA content (G2/M phase) versus control ([7]; HepG2, 24 h) | increase of 2N DNA content (G0/G1 phase) versus control ([7]; HepG2, 24 h) | effect on viability of HepG2 cell line [8] | apoptosis in HepG2 cells ([4]; LuG: ref 31) | cell cycle effect in HepG2 [9]
1 | O=c1cc(-c2ccc(O)c(O)c2)oc2cc(O)cc(O)c12 [Lu, 3′,4′,5,7-tetrahydroxy flavone] | less accumulation and cytotoxicity | less effective against HepG2 cells compared to the glycone form | no inhibitory effects | did not demonstrate any cytotoxicity | triggers classical mitochondrial apoptosis | – | – | – | – | – | – | – | – | – | – | –
2 | O=c1cc(-c2ccc(O)c(O)c2)oc2cc(O[C@@H]3O[C@H](CO)[C@@H](O)[C@H](O)[C@H]3O)cc(O)c12 [LuG, luteolin-7-O-glucoside] | significant cytotoxicity | – | negligible toxicity; also recorded: no inhibitory effects | negligible toxicity; also recorded: did not demonstrate any cytotoxicity | – | more rapidly than that of its aglycone form | highest cytotoxic effect; also recorded: effectively inhibits HepG2 cell viability | non-apoptotic cell death; also recorded: no significant increase | did not involve necrotic or apoptotic pathways | impaired G1 to S progression | no significant changes | about 7% | approximately 5% | dose-dependent effect | induced apoptotic features | induced G2/M phase
